The AUC is concentration integrated over time. A lower AUC goes with low exposure. Usually Tmax stands for the time at which the peak concentration occurs. The Cmax is the peak of the concentration-time curve.

Like-named read-outs stand apart in the source and are kept apart here.

Data set [1] is described as follows: In-vitro dissolution of printed patches. The format is physicochemical. The note with it: printed patches 5 mg fondaparinux with 3.6 mg NaCl, from lyophilized Arixtra.
Protocol: As the printed patches were prepared following lyophilization of the Arixtra® for injection, 5 mg fondaparinux in each patch contained 3.6 mg of NaCl (42% of the total patch solids).
A short description of data set [2]: Histological assessment of skin after micro-channel generation and treatment with fondaparinux. The format is in vivo. The settings on record: pigs, 450 MCs/cm^2, dried patch 1.25 mg, biopsies 13 and 22.5 hours post application. As to the method:
Histological assessments were performed in order to determine the effect of application of a high concentration of fondaparinux to skin in which micro-channels have been generated. Pigs were treated with […] apparatus to generate micro-channels at a density of 450 MCs/cm^2 (burst length of 6000 μsec). […] All biopsies (8 mm diameter) were fixed in 4% formaldehyde buffer for at least 48 hrs followed by staining with eosin and hematoxylin (H&E).

Details of data set [3]: species or system pigs. The settings on record: pig, in vivo. As to the method: Transdermal delivery of fondaparinux from a printed patch through micro-channels generated in pig skin by the […] apparatus was evaluated. The experiment included the following groups: • 1. […] To prepare the printed patches containing fondaparinux, a concentrated reconstituted solution of Arixtra® (fondaparinux sodium) was applied onto the patch and then air-dried. Each patch was affixed to the […] treated skin for 24 hours.

The conditions of data set [4]: human; cited from earlier work.
Details of data set [5]: species or system pigs. The settings on record: pig, in vivo. The protocol: Transdermal delivery of fondaparinux from a silicon pouch containing the pentasaccharide in solution through micro-channels generated in pig skin by the […] apparatus was evaluated. The experiment included the following groups: • 1.
This is another data set of the same source.

For `CO[C@H]1O[C@H](COS(=O)(=O)O)[C@@H](O[C@@H]2O[C@@H](C(=O)O)[C@@H](O[C@H]3O[C@H](COS(=O)(=O)O)[C@@H](O[C@@H]4O[C@H](C(=O)O)[C@@H](O[C@H]5O[C@H](COS(=O)(=O)O)[C@@H](O)[C@H](O)[C@H]5NS(=O)(=O)O)[C@H](O)[C@H]4O)[C@H](OS(=O)(=O)O)[C@H]3NS(=O)(=O)O)[C@H](O)[C@H]2OS(=O)(=O)O)[C@H](O)[C@H]1NS(=O)(=O)O` [fondaparinux], the “in-vitro dissolution of printed patches” value in data set [1] is recorded as around 85%. Moreover, in data set [2], the “abnormalities in the skin tissue (histology, H&E)” value was “no abnormalities” and the “signs of bleeding at the site of the treated skin (histology, H&E)” value is “no signs of bleeding”. Also, the “bioavailability from printed patches” value in data set [3] (5 mg) is listed as 11-17%. Also, in data set [3] (sc, 1 mg), the “% BA (bioavailability)” value amounted to 100%, the AUC is reported as 291 1.25 ± 2242.07 ng*h/ml and the Tmax worked out at 2 h. In addition, the half-life result in data set [4] is on record as “approximately 17 hours”. In data set [5] (sc, 1 mg), this compound returned an AUC of 1533.33 ± 1303.96 ng·h/mL and a Cmax of 235.72 ± 47.79 ng/mL. In data set [5] (topical or ocular, 28 mg), the AUC is 5659.33 ± 956.94 ng·h/mL and the Cmax was 709.74 ± 103.61 ng/mL.

(Values after patent US20110150976A1, “TRANSDERMAL DELIVERY OF OLIGOSACCHARIDES” (TRANSPHARMA MEDICAL LTD., priority 2008, published 2011).)
